The record followed here is patent EP4803142A2 (Kayothera Inc., priority 2021, dated 2022).

Assay [1] concerns the target T1, hALDH1a2 (Homo sapiens, UniProt O94788).
T1 construct: pET-Aldh1a2 transformed BL21-DE3 cultures; cell extracts
T1 sequence (O94788 1-518): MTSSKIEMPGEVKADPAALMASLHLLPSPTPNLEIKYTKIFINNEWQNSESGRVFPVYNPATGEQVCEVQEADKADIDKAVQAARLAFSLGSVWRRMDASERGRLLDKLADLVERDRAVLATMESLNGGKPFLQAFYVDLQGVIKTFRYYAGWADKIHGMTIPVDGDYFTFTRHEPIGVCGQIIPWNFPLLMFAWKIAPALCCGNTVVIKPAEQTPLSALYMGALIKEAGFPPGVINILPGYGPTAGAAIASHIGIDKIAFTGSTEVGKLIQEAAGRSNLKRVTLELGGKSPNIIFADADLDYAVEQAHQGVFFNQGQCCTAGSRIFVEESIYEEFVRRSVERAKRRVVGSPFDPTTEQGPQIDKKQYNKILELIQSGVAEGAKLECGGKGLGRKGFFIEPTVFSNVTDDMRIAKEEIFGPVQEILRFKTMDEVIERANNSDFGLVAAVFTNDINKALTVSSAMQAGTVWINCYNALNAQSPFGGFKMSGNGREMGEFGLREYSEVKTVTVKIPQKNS
The experiment in a line: biochemical. Particulars: read-out: hAldhla2 IC50. How it is done:
(§1) Biological Example 5C. Aldh1a2 Enzyme Inhibition Assay
(§2) Cell extracts were spun at 16000 x g for 5 minutes.
(§3) Recombinant enzyme and inhibitor added immediately before assay. Reaction rate measured by resorufin fluorescence. […]
(§4) Table 3B. IC50 values (nM) for inhibition of hALDH1a2 and mALDH1a2 of selected compounds

In assay [2] the target is T2, mALDH1a2 (Mus musculus, UniProt Q62148).
T2 construct: pET-Aldh1a2 transformed BL21-DE3 cultures; cell extracts
T2 sequence (Q62148 1-518): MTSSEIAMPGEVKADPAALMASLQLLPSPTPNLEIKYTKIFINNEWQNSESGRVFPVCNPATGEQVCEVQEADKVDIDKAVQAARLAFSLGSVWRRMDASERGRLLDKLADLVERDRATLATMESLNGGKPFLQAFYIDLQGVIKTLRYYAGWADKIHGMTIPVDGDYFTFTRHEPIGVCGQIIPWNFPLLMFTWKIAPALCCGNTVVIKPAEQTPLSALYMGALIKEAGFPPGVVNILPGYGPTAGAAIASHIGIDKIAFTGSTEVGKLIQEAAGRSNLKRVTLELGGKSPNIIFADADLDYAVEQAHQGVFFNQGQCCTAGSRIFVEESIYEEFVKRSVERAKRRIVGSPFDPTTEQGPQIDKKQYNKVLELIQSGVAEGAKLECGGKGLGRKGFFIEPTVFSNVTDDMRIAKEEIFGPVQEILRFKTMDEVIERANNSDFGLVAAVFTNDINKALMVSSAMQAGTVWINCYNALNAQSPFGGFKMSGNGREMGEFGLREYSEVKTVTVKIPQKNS
The assay is described as follows: biochemical. Particulars: read-out: mAldhla2 IC50. The method, then: as §1, §2, §3, §4

In general, IC50 refers to the concentration needed to halve the response being measured.

Turning to `O=C1CCc2cc(NC(=O)c3ccncc3)c(F)cc2N1` [compound 2], the IC50 in assay [1] is over 10 µM; in assay [2] it was 10 µM.

With `CCc1cnccc1CNc1cc2c(cc1F)NC(=O)CC2` [compound 3], the IC50 in assay [1] was determined as 4 µM; in assay [2] it was 3.33 µM.

For the compound `CCc1ccccc1C(=O)Nc1cc2c(cc1F)NC(=O)CC2` [compound 4], the IC50 in assay [1] came out at 5 µM; in assay [2] it was 4 µM.

Take `CCCc1cnccc1C(=O)Nc1cc2c(cc1F)NC(=O)CC2` [compound 5]: the concentration for half-maximal inhibition (IC50) in assay [1] was determined as 9 µM; in assay [2], 10 µM.

For the compound `CC(C)c1cnccc1C(=O)Nc1cc2c(cc1F)NC(=O)CC2` [compound 6], the values for the IC50 in assay [1] and in assay [2] were over 10 µM and 10 µM, respectively.

For `CC(C)Cc1cnccc1C(=O)Nc1cc2c(cc1F)NC(=O)CC2` [compound 7], the values for the IC50 in assay [1] and in assay [2] were 3.5 µM and 9 µM, respectively.

As for `CCc1cnc(C)cc1C(=O)Nc1cc2c(cc1F)NC(=O)CC2` [compound 8], the IC50 in assay [1] worked out at 9 µM; in assay [2], 5 µM.

As for `Cc1ccc(C)c(CNc2ccc3c(c2)CCC(=O)N3)c1` [compound 10], the IC50 amounted to 9 µM in assay [1] and 3.5 µM in assay [2].

Regarding `Cc1ccc(C(=O)Nc2ccc3c(c2)CCC(=O)N3)cc1C` [compound 11], the IC50 in assay [1] and in assay [2] was over 10 µM in each case.

On to `Cc1ccc(C(=O)Nc2ccc3c(c2)CCC(=O)N3)c(C)c1` [compound 12], for which the IC50 in assay [1] and in assay [2] was over 10 µM throughout.

On to `Cc1ccccc1C(=O)Nc1ccc2c(c1)CCC(=O)N2` [compound 13], for which the concentration for half-maximal inhibition (IC50) was determined as 5 µM in assay [1] and 2.95 µM in assay [2].

Turning to `O=C1CCc2cc(NCc3ccccc3)ccc2N1` [compound 14], the IC50 in assay [1] and in assay [2] was 10 µM throughout.

Take `Cc1cnccc1C(=O)Nc1cc2c(cc1F)NC(=O)CC2` [compound 15]: the half-inhibitory concentration (IC50) in assay [1] and in assay [2] was 10 µM throughout.

On to `Cc1cc(C(=O)Nc2cc3c(cc2F)NC(=O)CC3)ccn1` [compound 16], for which the IC50 in assay [1] and in assay [2] was 10 µM in each case.

For the compound `O=C1CCc2cc(NCc3cc[nH]c3)c(F)cc2N1` [compound 17], the half-maximal inhibitory concentration (IC50) in assay [1] and in assay [2] was 10 µM in each case.

`CCc1cnccc1C(=O)Nc1ccc2c(c1)CC(C)(C)C(=O)N2` [compound 18]: the IC50 in assay [1] was 2.13 µM; in assay [2] it was 1.74 µM.

On to `CCc1cnccc1C(=O)Nc1ccc2c(c1)C(C)(C)CC(=O)N2` [compound 19], for which the IC50 in assay [1] turned out to be 0.65 µM; in assay [2], 1.05 µM.

As for `CCc1cnccc1C(=O)Nc1ccc2c(c1)CN(C)C(=O)N2` [compound 20], the results for the IC50 in assay [1] and in assay [2] were over 10 µM and over 100 µM, respectively.

Turning to `Cc1cnccc1C(=O)Nc1ccc2c(c1)CCC(=O)N2` [compound 21], the IC50 in assay [1] was found to be 30 µM; in assay [2], 32 µM.

Consider `O=C1CCc2cc(Nc3nccc4ccccc34)ccc2N1` [compound 22], for which the 50% inhibitory concentration (IC50) in assay [1] was determined as 20 µM; in assay [2], 25 µM.

Consider `Cc1cc(C(=O)Nc2ccc3c(c2)CCC(=O)N3)ccn1` [compound 24], for which the IC50 in assay [1] and in assay [2] was 100 µM in each case.

For `Cc1cnccc1/C=C/c1ccc2c(c1)CCC(=O)N2` [compound 30], the IC50 in assay [1] is 9 µM; in assay [2], 11.1 µM.

Regarding `CCc1cnccc1/C=C/c1ccc2c(c1)CCC(=O)N2` [compound 33], the IC50 in assay [1] is 0.258 µM; in assay [2], 0.143 µM.

Regarding `CC1(C)CC(=O)Nc2ccc(Nc3nccc4ccccc34)cc21` [compound 34], the IC50 came to 39.2 µM in assay [1] and 30.9 µM in assay [2].

For the compound `O=C1CCc2cc(Nc3ccc4ccccc4n3)ccc2N1` [compound 35], the results for the IC50 in assay [1] and in assay [2] were 0.148 µM and 0.1 µM, respectively.

Regarding `Cc1cc(C(=O)Nc2cc3c(cc2F)NC(=O)C(C)(C)C3)c(CC(C)C)cn1` [compound 37], the IC50 in assay [1] and in assay [2] was over 10 µM throughout.

As to `CCc1cnccc1C(=O)Nc1cc2c(cc1F)NC(=O)C(C)(C)C2` [compound 38], the concentration for half-maximal inhibition (IC50) in assay [1] and in assay [2] was over 10 µM in each case.

Regarding `CCc1cnccc1C(=O)Nc1cc2ccc(=O)[nH]c2cc1F` [compound 39], the IC50 in assay [1] was 3.5 µM; in assay [2] it was 8 µM.

Turning to `CCc1cnccc1C(=O)Nc1cc2c(cc1F)NC(=O)CC2(C)C` [compound 40], the half-inhibitory concentration (IC50) in assay [1] came out at 1.04 µM; in assay [2], 3.33 µM.

For the compound `COc1cnccc1C(=O)Nc1cc2c(cc1F)NC(=O)C(C)(C)C2` [compound 41], the IC50 in assay [1] came to 9 µM; in assay [2], 11.1 µM.

Consider `CCc1cc(C#N)ccc1C(=O)Nc1cc2c(cc1F)NC(=O)C(C)(C)C2` [compound 42], for which the IC50 was found to be 6.36 µM in assay [1] and 2.6 µM in assay [2].

Take `CCc1cnccc1/C=C/c1ccc2c(c1)CC(C)(C)C(=O)N2` [compound 43]: the IC50 in assay [1] worked out at 1.2 µM; in assay [2], 3 µM.

As for `CCc1cnccc1/C=C/c1cc2c(cc1F)NC(=O)CC2` [compound 45], the IC50 worked out at 0.293 µM in assay [1] and 3.33 µM in assay [2].

`CC1(C)Cc2cc(Nc3ccc4ccccc4n3)ccc2NC1=O` [compound 46]: the 50% inhibitory concentration (IC50) was 0.248 µM in assay [1] and 0.162 µM in assay [2].

`O=C1CCc2cc(Nc3ccc4ccccc4n3)c(F)cc2N1` [compound 47]: the figures for the IC50 in assay [1] and in assay [2] were 0.099 µM and 0.072 µM, respectively.

With `CC1(C)Cc2cc(Nc3ccc4ccccc4n3)c(F)cc2NC1=O` [compound 48], the results for the IC50 in assay [1] and in assay [2] were 0.099 µM and 0.097 µM, respectively.

With `CCc1c(C(=O)Nc2ccc3c(c2)CCC(=O)N3)cc[nH]c1=O` [compound 50], the IC50 in assay [1] and in assay [2] was over 10 µM throughout.

For the compound `CCc1c[nH]c(=O)cc1C(=O)Nc1ccc2c(c1)CCC(=O)N2` [compound 51], the IC50 in assay [1] and in assay [2] was over 10 µM throughout.

In the case of `O=C1CCc2cc(NC(=O)c3ccnc4ccccc34)ccc2N1` [compound 52], the figures for the IC50 in assay [1] and in assay [2] were 0.32 µM and 0.117 µM, respectively.

On to `O=C1CCc2cc(NC(=O)c3ccncc3C(F)(F)F)ccc2N1` [compound 54], for which the IC50 in assay [1] stood at 1.06 µM; in assay [2], 0.224 µM.

With `CCc1c(C(=O)Nc2ccc3c(c2)CCC(=O)N3)ccnc1C` [compound 55], the IC50 in assay [1] and in assay [2] was over 10 µM each time.

Turning to `CCc1cnc(C)cc1C(=O)Nc1ccc2c(c1)CCC(=O)N2` [compound 56], the IC50 in assay [1] worked out at 10 µM; in assay [2], 1.26 µM.

As for `COCc1cnccc1C(=O)Nc1ccc2c(c1)CCC(=O)N2` [compound 57], the IC50 in assay [1] and in assay [2] was over 10 µM in each case.

For `CN(C)Cc1cnccc1C(=O)Nc1ccc2c(c1)CCC(=O)N2` [compound 58], the half-inhibitory concentration (IC50) in assay [1] and in assay [2] was over 10 µM in each case.

In the case of `CCCc1cnccc1C(=O)Nc1ccc2c(c1)CCC(=O)N2` [compound 60], the half-maximal inhibitory concentration (IC50) in assay [1] is 1.53 µM; in assay [2], 0.935 µM.

For `CCc1cnccc1C(=O)Nc1ccc2c(c1)CC1(CC1)C(=O)N2` [compound 61], the IC50 in assay [1] is 2.04 µM; in assay [2], 1.81 µM.

`CCc1cnccc1C(=O)Nc1ccc2c(c1)CC(C)(CC)C(=O)N2` (stereo not shown) [compound 62]: the IC50 in assay [1] and in assay [2] was over 10 µM throughout.

For the compound `CCc1cnccc1C(=O)Nc1ccc2c(c1)CC(C)C(=O)N2` (stereo not shown) [compound 63], the 50% inhibitory concentration (IC50) worked out at 0.538 µM in assay [1] and 0.297 µM in assay [2].

Consider `CCc1cnccc1C(=O)Nc1ccc2c(c1)C(C)CC(=O)N2` (stereo not shown) [compound 64], for which the results for the IC50 in assay [1] and in assay [2] were 2.79 µM and 5 µM, respectively.

In the case of `Cc1cc(C(=O)Nc2ccc3c(c2)CC2(CC2)C(=O)N3)c(Cl)cn1` [compound 68], the IC50 is over 10 µM in assay [1] and 3.44 µM in assay [2].

In the case of `CC(C)=Cc1cnc(C)cc1C(=O)Nc1ccc2c(c1)CC(C)(C)C(=O)N2` [compound 69], the IC50 in assay [1] and in assay [2] was over 10 µM in each case.

For the compound `CCc1cnccc1C(=O)Nc1cc2c(cc1Cl)NC(=O)CC2` [compound 70], the IC50 in assay [1] is over 10 µM; in assay [2], 2.96 µM.

Regarding `C=CCc1cnccc1C(=O)Nc1ccc2c(c1)CCC(=O)N2` [compound 71], the IC50 was 0.963 µM in assay [1] and 0.747 µM in assay [2].
